Reference: publication PMC6874179, “Development of Macrocycle Kinase Inhibitors for ALK2 Using Fibrodysplasia Ossificans Progressiva‐Derived Endothelial Cells” (JBMR Plus, 2019)

Legend:
ERBB2 = target: T1, ERBB2 (Homo sapiens, UniProt P04626); experiment: Proqinase Kinase profiling; type: biochemical; details: read-out: % inhibition at 100nM
T1 construct: purchased DiscoverX

CSNK1E = target: T2, CSNK1E (Homo sapiens, UniProt P49674); experiment: Proqinase Kinase profiling; type: biochemical; details: read-out: % inhibition at 100nM
T2 construct: purchased DiscoverX

CDK1_cyclinA2 = target: T3, CDK1_cyclinA2 (Homo sapiens, UniProt P06493); experiment: Proqinase Kinase profiling; type: biochemical; details: read-out: % inhibition at 100nM
T3 construct: purchased DiscoverX

EGFR_L747-S752del_P753S = target: T4, EGFR_L747-S752del_P753S (Homo sapiens, UniProt P00533, DEL747-752/P753S); experiment: Proqinase Kinase profiling; type: biochemical; details: read-out: % inhibition at 100nM
T4 construct: purchased DiscoverX

DCLK2 = target: T5, DCLK2 (Homo sapiens, UniProt Q8N568); experiment: Proqinase Kinase profiling; type: biochemical; details: read-out: % inhibition at 100nM
T5 construct: purchased DiscoverX

KIT_V559D_V654A = target: T6, KIT_V559D_V654A (Homo sapiens, UniProt P10721, V559D/V654A); experiment: Proqinase Kinase profiling; type: biochemical; details: read-out: % inhibition at 100nM
T6 construct: purchased DiscoverX

ADRBK1 = target: T7, ADRBK1 (Homo sapiens, UniProt P25098); experiment: Proqinase Kinase profiling; type: biochemical; details: read-out: % inhibition at 100nM
T7 construct: purchased DiscoverX

TLK1 = target: T8, TLK1 (Homo sapiens, UniProt Q9UKI8); experiment: Proqinase Kinase profiling; type: biochemical; details: read-out: % inhibition at 100nM
T8 construct: purchased DiscoverX

RET_V804L = target: T9, RET_V804L (Homo sapiens, UniProt P07949, V804L); experiment: Proqinase Kinase profiling; type: biochemical; details: read-out: % inhibition at 100nM
T9 construct: purchased DiscoverX

AKT1 = target: T10, AKT1 (Homo sapiens, UniProt P31749); experiment: Proqinase Kinase profiling; type: biochemical; details: read-out: % inhibition at 100nM
T10 construct: purchased DiscoverX

[1] = tested on: BMP-6-induced BRE-LUC reporter activity; experiment: BMP BRE-LUC reporter assay in KS483 cells; type: cell-based, mouse; details: BMP-6 50 ng/mL 16 hours
Experimental: Compounds were added for 16 hours at 0.5μM before luciferase activity was measured.
For luciferase reporter assays, cells were seeded in 24-well plates and transfected with DharmaFECT Duo (Fisher Scientific, Landsmeer, The Netherlands), following the recommendations of the manufacturer. 48 hours after transfection the cells were harvested and lysed. […] Each transfection mixture was equalized with empty vector when necessary and every experiment was performed in triplicate.

PRKG1 = target: T11, PRKG1 (Homo sapiens, UniProt Q13976); experiment: Proqinase Kinase profiling; type: biochemical; details: read-out: % inhibition at 100nM
T11 construct: purchased DiscoverX

MKNK1 = target: T12, MKNK1 (Homo sapiens, UniProt Q9BUB5); experiment: Proqinase Kinase profiling; type: biochemical; details: read-out: % inhibition at 100nM
T12 construct: purchased DiscoverX

PAK7 = target: T13, PAK7 (Homo sapiens, UniProt Q9P286); experiment: Proqinase Kinase profiling; type: biochemical; details: read-out: % inhibition at 100nM
T13 construct: purchased DiscoverX

CDK3_cyclinE = target: T14, CDK3_cyclinE (Homo sapiens, UniProt Q00526); experiment: Proqinase Kinase profiling; type: biochemical; details: read-out: % inhibition at 100nM
T14 construct: purchased DiscoverX

EIF2AK3 = target: T15, EIF2AK3 (Homo sapiens, UniProt Q9NZJ5); experiment: Proqinase Kinase profiling; type: biochemical; details: read-out: % inhibition at 100nM
T15 construct: purchased DiscoverX

CHEK1 = target: T16, CHEK1 (Homo sapiens, UniProt O14757); experiment: Proqinase Kinase profiling; type: biochemical; details: read-out: % inhibition at 100nM
T16 construct: purchased DiscoverX

PRKCD = target: T17, PRKCD (Homo sapiens, UniProt Q05655); experiment: Proqinase Kinase profiling; type: biochemical; details: read-out: % inhibition at 100nM
T17 construct: purchased DiscoverX

PDGFRA_T674I = target: T18, PDGFRA_T674I (Homo sapiens, UniProt P16234, T674I); experiment: Proqinase Kinase profiling; type: biochemical; details: read-out: % inhibition at 100nM
T18 construct: purchased DiscoverX

CAMK2B = target: T19, CAMK2B (Homo sapiens, UniProt Q13554); experiment: Proqinase Kinase profiling; type: biochemical; details: read-out: % inhibition at 100nM
T19 construct: purchased DiscoverX

DAPK1 = target: T20, DAPK1 (Homo sapiens, UniProt P53355); experiment: Proqinase Kinase profiling; type: biochemical; details: read-out: % inhibition at 100nM
T20 construct: purchased DiscoverX

STK24 = target: T21, STK24 (Homo sapiens, UniProt Q9Y6E0); experiment: Proqinase Kinase profiling; type: biochemical; details: read-out: % inhibition at 100nM
T21 construct: purchased DiscoverX

PRKG2 = target: T22, PRKG2 (Homo sapiens, UniProt Q13237); experiment: Proqinase Kinase profiling; type: biochemical; details: read-out: % inhibition at 100nM
T22 construct: purchased DiscoverX

EPHB4 = target: T23, EPHB4 (Homo sapiens, UniProt P54760); experiment: Proqinase Kinase profiling; type: biochemical; details: read-out: % inhibition at 100nM
T23 construct: purchased DiscoverX

RET_R813Q = target: T24, RET_R813Q (Homo sapiens, UniProt P07949, R813Q); experiment: Proqinase Kinase profiling; type: biochemical; details: read-out: % inhibition at 100nM
T24 construct: purchased DiscoverX

PAK2 = target: T25, PAK2 (Homo sapiens, UniProt Q13177); experiment: Proqinase Kinase profiling; type: biochemical; details: read-out: % inhibition at 100nM
T25 construct: purchased DiscoverX

MET_M1250T = target: T26, MET_M1250T (Homo sapiens, UniProt P08581, M1250T); experiment: Proqinase Kinase profiling; type: biochemical; details: read-out: % inhibition at 100nM
T26 construct: purchased DiscoverX

MARK1 = target: T27, MARK1 (Homo sapiens, UniProt Q9P0L2); experiment: Proqinase Kinase profiling; type: biochemical; details: read-out: % inhibition at 100nM
T27 construct: purchased DiscoverX

FGFR1_V561M = target: T28, FGFR1_V561M (Homo sapiens, UniProt P11362, V561M); experiment: Proqinase Kinase profiling; type: biochemical; details: read-out: % inhibition at 100nM
T28 construct: purchased DiscoverX

GRK7 = target: T29, GRK7 (Homo sapiens, UniProt Q8WTQ7); experiment: Proqinase Kinase profiling; type: biochemical; details: read-out: % inhibition at 100nM
T29 construct: purchased DiscoverX

FER = target: T30, FER (Homo sapiens, UniProt P16591); experiment: Proqinase Kinase profiling; type: biochemical; details: read-out: % inhibition at 100nM
T30 construct: purchased DiscoverX

MAPK11 = target: T31, MAPK11 (Homo sapiens, UniProt Q15759); experiment: Proqinase Kinase profiling; type: biochemical; details: read-out: % inhibition at 100nM
T31 construct: purchased DiscoverX

ADRBK2 = target: T32, ADRBK2 (Homo sapiens, UniProt P35626); experiment: Proqinase Kinase profiling; type: biochemical; details: read-out: % inhibition at 100nM
T32 construct: purchased DiscoverX

CAMK2D = target: T33, CAMK2D (Homo sapiens, UniProt Q13557); experiment: Proqinase Kinase profiling; type: biochemical; details: read-out: % inhibition at 100nM
T33 construct: purchased DiscoverX

IRAK1 = target: T34, IRAK1 (Homo sapiens, UniProt P51617); experiment: Proqinase Kinase profiling; type: biochemical; details: read-out: % inhibition at 100nM
T34 construct: purchased DiscoverX

MAPK10 = target: T35, MAPK10 (Homo sapiens, UniProt P53779); experiment: Proqinase Kinase profiling; type: biochemical; details: read-out: % inhibition at 100nM
T35 construct: purchased DiscoverX

ROS1 = target: T36, ROS1 (Homo sapiens, UniProt P08922); experiment: Proqinase Kinase profiling; type: biochemical; details: read-out: % inhibition at 100nM
T36 construct: purchased DiscoverX

MAP3K1 = target: T37, MAP3K1 (Homo sapiens, UniProt Q13233); experiment: Proqinase Kinase profiling; type: biochemical; details: read-out: % inhibition at 100nM
T37 construct: purchased DiscoverX

CAMKK1 = target: T38, CAMKK1 (Homo sapiens, UniProt Q8N5S9); experiment: Proqinase Kinase profiling; type: biochemical; details: read-out: % inhibition at 100nM
T38 construct: purchased DiscoverX

DAPK2 = target: T39, DAPK2 (Homo sapiens, UniProt Q9UIK4); experiment: Proqinase Kinase profiling; type: biochemical; details: read-out: % inhibition at 100nM
T39 construct: purchased DiscoverX
T39 sequence (Q9UIK4 whole entry): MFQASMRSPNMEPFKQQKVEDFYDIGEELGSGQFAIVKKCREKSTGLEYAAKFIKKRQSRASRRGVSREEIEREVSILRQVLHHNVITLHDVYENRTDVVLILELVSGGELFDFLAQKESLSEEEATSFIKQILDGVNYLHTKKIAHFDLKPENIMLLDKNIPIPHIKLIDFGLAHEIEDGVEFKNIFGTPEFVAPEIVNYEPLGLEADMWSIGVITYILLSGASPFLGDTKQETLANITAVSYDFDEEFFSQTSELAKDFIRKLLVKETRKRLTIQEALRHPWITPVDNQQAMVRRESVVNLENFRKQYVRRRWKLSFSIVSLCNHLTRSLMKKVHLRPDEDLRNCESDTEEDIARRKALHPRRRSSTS

T28 sequence (P11362 22-822 V561M): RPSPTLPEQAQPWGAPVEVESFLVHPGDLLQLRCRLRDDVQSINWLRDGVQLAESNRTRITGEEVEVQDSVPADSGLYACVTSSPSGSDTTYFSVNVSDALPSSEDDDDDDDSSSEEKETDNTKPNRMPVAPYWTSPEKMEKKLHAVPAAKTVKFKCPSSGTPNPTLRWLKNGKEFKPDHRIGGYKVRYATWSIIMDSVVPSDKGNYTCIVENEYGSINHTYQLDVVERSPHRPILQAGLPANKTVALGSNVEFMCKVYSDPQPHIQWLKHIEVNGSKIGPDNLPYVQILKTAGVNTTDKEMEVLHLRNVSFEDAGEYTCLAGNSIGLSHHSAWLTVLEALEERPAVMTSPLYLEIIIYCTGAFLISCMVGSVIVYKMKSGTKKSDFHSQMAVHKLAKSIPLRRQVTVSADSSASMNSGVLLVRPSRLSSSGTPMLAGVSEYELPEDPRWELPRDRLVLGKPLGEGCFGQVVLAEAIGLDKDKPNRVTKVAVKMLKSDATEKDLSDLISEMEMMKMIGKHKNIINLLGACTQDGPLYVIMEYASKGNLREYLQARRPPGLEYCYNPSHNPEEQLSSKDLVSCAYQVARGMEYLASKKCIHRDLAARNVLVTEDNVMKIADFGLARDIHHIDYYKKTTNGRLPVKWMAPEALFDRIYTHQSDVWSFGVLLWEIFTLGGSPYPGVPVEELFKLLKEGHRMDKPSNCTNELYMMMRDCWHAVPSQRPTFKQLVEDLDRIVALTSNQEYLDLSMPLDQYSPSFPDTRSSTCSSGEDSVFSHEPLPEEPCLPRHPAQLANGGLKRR
T34 sequence (P51617 whole entry): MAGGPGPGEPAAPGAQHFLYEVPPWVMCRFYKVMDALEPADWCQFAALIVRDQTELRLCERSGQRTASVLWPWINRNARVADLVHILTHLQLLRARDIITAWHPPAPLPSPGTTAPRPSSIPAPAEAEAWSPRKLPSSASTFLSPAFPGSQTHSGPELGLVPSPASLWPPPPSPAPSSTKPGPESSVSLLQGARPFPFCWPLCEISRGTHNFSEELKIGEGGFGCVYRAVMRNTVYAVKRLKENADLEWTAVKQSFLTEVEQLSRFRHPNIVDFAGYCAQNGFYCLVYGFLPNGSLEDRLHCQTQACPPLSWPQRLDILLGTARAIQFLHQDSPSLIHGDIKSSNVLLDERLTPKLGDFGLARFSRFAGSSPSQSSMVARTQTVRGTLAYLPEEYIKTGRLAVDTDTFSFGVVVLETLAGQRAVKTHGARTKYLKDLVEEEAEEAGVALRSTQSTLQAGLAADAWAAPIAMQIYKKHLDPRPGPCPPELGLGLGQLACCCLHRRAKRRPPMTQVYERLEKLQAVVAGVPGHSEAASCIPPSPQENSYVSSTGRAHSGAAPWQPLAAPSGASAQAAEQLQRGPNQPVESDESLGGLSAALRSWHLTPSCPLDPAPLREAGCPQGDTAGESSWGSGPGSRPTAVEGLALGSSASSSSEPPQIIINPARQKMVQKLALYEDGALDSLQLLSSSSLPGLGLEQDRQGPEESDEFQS
T22 sequence (Q13237 whole entry): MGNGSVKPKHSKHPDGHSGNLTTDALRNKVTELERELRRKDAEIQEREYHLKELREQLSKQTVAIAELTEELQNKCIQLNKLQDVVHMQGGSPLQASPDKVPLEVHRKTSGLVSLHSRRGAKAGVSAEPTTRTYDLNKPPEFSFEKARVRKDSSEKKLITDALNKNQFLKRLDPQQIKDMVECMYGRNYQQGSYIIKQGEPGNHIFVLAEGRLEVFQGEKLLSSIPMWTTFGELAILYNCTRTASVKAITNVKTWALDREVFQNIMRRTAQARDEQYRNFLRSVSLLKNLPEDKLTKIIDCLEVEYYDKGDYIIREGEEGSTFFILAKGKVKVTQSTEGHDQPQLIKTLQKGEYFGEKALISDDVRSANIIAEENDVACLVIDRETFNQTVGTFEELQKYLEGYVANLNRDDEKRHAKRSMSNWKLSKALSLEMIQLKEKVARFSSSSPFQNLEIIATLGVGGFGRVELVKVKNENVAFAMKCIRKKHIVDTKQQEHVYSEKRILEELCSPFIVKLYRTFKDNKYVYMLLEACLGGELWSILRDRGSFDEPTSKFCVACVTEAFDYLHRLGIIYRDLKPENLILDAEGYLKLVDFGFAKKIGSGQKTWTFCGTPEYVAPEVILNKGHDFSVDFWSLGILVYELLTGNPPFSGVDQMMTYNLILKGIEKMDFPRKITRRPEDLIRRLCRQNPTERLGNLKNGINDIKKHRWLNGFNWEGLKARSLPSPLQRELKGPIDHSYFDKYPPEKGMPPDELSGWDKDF
T30 sequence (P16591 whole entry): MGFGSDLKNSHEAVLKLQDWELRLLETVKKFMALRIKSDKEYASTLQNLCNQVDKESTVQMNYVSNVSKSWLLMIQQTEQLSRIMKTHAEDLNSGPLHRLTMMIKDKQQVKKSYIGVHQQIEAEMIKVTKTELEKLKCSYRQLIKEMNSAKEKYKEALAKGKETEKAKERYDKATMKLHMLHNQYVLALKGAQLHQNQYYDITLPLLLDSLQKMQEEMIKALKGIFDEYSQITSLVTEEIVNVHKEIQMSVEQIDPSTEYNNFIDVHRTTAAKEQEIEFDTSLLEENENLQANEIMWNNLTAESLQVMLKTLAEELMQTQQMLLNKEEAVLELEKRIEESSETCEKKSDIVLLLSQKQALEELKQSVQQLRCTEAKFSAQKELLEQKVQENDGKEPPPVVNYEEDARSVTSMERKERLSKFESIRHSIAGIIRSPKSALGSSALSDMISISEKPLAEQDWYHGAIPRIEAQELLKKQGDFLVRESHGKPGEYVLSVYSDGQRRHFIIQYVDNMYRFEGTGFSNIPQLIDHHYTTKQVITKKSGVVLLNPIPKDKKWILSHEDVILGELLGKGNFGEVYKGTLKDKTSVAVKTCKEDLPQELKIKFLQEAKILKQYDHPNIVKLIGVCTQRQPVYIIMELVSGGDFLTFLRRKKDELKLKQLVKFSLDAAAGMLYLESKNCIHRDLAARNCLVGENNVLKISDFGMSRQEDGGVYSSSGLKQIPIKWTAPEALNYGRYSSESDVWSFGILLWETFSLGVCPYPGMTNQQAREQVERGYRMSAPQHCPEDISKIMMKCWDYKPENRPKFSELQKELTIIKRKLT
T10 sequence (P31749 whole entry): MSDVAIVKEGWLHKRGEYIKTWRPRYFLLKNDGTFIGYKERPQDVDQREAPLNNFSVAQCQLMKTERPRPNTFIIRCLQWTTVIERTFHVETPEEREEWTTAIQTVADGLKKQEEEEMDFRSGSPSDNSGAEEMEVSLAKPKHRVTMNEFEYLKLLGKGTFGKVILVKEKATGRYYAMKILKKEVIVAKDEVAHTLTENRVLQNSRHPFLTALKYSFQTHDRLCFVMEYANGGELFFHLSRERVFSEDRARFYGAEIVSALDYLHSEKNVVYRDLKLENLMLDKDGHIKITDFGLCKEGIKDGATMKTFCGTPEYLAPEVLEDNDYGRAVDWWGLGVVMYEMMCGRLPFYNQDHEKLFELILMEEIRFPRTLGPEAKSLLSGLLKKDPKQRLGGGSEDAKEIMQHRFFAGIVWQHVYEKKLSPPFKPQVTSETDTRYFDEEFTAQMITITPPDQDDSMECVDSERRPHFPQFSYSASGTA
T3 sequence (P06493 whole entry): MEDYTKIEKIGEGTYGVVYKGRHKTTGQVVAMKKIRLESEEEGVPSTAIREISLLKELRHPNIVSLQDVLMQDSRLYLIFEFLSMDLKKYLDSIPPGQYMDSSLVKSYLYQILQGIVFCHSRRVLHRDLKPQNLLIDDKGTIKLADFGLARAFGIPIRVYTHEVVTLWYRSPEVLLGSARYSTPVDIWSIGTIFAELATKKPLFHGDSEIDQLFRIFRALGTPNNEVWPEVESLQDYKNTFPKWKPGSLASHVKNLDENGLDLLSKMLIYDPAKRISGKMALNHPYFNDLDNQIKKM
T3 sequence (P20248 whole entry partner): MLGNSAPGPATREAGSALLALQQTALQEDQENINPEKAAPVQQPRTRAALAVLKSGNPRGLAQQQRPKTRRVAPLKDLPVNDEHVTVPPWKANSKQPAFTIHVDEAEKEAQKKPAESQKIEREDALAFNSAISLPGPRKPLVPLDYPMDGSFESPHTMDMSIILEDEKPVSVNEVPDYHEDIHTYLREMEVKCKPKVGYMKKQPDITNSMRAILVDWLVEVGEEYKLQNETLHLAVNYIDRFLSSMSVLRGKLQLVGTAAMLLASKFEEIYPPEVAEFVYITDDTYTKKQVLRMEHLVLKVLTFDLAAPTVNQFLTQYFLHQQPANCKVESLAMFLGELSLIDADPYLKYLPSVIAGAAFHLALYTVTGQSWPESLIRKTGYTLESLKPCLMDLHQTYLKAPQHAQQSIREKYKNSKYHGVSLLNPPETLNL

## Clc1cc2cc(c1)-c1cnn3ccc(nc13)NCCOCCO2 [OD36]
ERBB2
  inhibition at 0.1 µM: 0%
CSNK1E
  inhibition at 0.1 µM: 6%
CDK1_cyclinA2
  inhibition at 0.1 µM: 11%
EGFR_L747-S752del_P753S
  inhibition at 0.1 µM: 10%
DCLK2
  inhibition at 0.1 µM: 11%
KIT_V559D_V654A
  inhibition at 0.1 µM: -2%
ADRBK1
  inhibition at 0.1 µM: 4%
TLK1
  inhibition at 0.1 µM: 17%
RET_V804L
  inhibition at 0.1 µM: -10%
AKT1
  inhibition at 0.1 µM: 4%
[1]
  Inhibition of BMP-6-stimulated BRE-LUC reporter activity: in the submicromolar range
PRKG1
  inhibition at 0.1 µM: 3%
MKNK1
  inhibition at 0.1 µM: 23%
PAK7
  inhibition at 0.1 µM: 8%
CDK3_cyclinE
  inhibition at 0.1 µM: 11%
EIF2AK3
  inhibition at 0.1 µM: 1%
CHEK1
  inhibition at 0.1 µM: 11%
PRKCD
  inhibition at 0.1 µM: 4%
PDGFRA_T674I
  inhibition at 0.1 µM: -22%
CAMK2B
  inhibition at 0.1 µM: 32%
DAPK1
  inhibition at 0.1 µM: 12%
STK24
  inhibition at 0.1 µM: 8%
PRKG2
  inhibition at 0.1 µM: 14%
EPHB4
  inhibition at 0.1 µM: 6%
RET_R813Q
  inhibition at 0.1 µM: 45%
PAK2
  inhibition at 0.1 µM: -5%
MET_M1250T
  inhibition at 0.1 µM: 12%
MARK1
  inhibition at 0.1 µM: 11%
FGFR1_V561M
  inhibition at 0.1 µM: 9%
GRK7
  inhibition at 0.1 µM: 6%
FER
  inhibition at 0.1 µM: 6%
MAPK11
  inhibition at 0.1 µM: 11%
ADRBK2
  inhibition at 0.1 µM: 0%
CAMK2D
  inhibition at 0.1 µM: 6%
IRAK1
  inhibition at 0.1 µM: 9%
MAPK10
  inhibition at 0.1 µM: 17%
ROS1
  inhibition at 0.1 µM: 7%
MAP3K1
  inhibition at 0.1 µM: 8%
CAMKK1
  inhibition at 0.1 µM: 20%
DAPK2
  inhibition at 0.1 µM: 17%

## Cc1cc2cc(c1)-c1cnn3ccc(nc13)NCCNC(=O)CCN(C)C2 [OD52]
ERBB2
  inhibition at 0.1 µM: -44%
CSNK1E
  inhibition at 0.1 µM: 20%
CDK1_cyclinA2
  inhibition at 0.1 µM: 1%
EGFR_L747-S752del_P753S
  inhibition at 0.1 µM: -15%
DCLK2
  inhibition at 0.1 µM: 7%
KIT_V559D_V654A
  inhibition at 0.1 µM: -12%
ADRBK1
  inhibition at 0.1 µM: 10%
TLK1
  inhibition at 0.1 µM: 16%
RET_V804L
  inhibition at 0.1 µM: -8%
AKT1
  inhibition at 0.1 µM: -4%
[1]
  Inhibition of BMP-6-stimulated BRE-LUC reporter activity: in the submicromolar range
PRKG1
  inhibition at 0.1 µM: -6%
MKNK1
  inhibition at 0.1 µM: -11%
PAK7
  inhibition at 0.1 µM: 5%
CDK3_cyclinE
  inhibition at 0.1 µM: 5%
EIF2AK3
  inhibition at 0.1 µM: -14%
CHEK1
  inhibition at 0.1 µM: -8%
PRKCD
  inhibition at 0.1 µM: 2%
PDGFRA_T674I
  inhibition at 0.1 µM: 4%
CAMK2B
  inhibition at 0.1 µM: 12%
DAPK1
  inhibition at 0.1 µM: 0%
STK24
  inhibition at 0.1 µM: 12%
PRKG2
  inhibition at 0.1 µM: -10%
EPHB4
  inhibition at 0.1 µM: -25%
RET_R813Q
  inhibition at 0.1 µM: 37%
PAK2
  inhibition at 0.1 µM: -7%
MET_M1250T
  inhibition at 0.1 µM: -19%
MARK1
  inhibition at 0.1 µM: -9%
FGFR1_V561M
  inhibition at 0.1 µM: -26%
GRK7
  inhibition at 0.1 µM: 12%
FER
  inhibition at 0.1 µM: -12%
MAPK11
  inhibition at 0.1 µM: -5%
ADRBK2
  inhibition at 0.1 µM: -3%
CAMK2D
  inhibition at 0.1 µM: -9%
IRAK1
  inhibition at 0.1 µM: 16%
MAPK10
  inhibition at 0.1 µM: 1%
ROS1
  inhibition at 0.1 µM: 5%
MAP3K1
  inhibition at 0.1 µM: -14%
CAMKK1
  inhibition at 0.1 µM: -8%
DAPK2
  inhibition at 0.1 µM: -10%
